Results as given in US12636285B2 (ViiV Healthcare Company, priority 2019, dated 2026).
In brackets after ≈: the same amount, converted by molar mass. Several values for one entry are separate records, joined by “and”; a condition that tells them apart may be missing. Equal entries are not always repeated. Where two headings read alike, the source gives them in different places.

Experiments:
HIV-1 [1] = assay: Antiviral activity in combination with other antivirals, cell culture; format: cell-based; conditions: cell culture
[2] = QT cross-over trial of oral cabotegravir in healthy subjects; format: in vivo, human; conditions: oral cabotegravir 150 mg every 12 hours
[3] = Pharmacokinetics in specific populations (renal, hepatic impairment, UGT1A1 genotype); format: in vivo, human; conditions: for pharmacokinetic differences vs matching healthy subjects: oral cabotegravir
Excerpt: No dosage adjustment is necessary for patients with mild to severe renal impairment (not on dialysis).
No dosage adjustment is necessary for patients with mild to moderate hepatic impairment (Child-Pugh Score A or B).
No dose adjustment is required in subjects with UGT1A1 polymorphisms.

[4] = Reproduction and development studies in rats
CYP1A2, CYP2B6, CYP3A4 = assay: In vitro CYP induction; format: in vitro ADME
[5] = in vivo
Excerpt: The observed hepatocellular findings in mice may be rodent specific.

[6] = tested on: CYP1A2, 2A6, 2B6, 2C8, 2C9, 2C19, 2D6, 3A4; UGT1A1, 1A3, 1A4, 1A6, 1A9, 2B4, 2B7, 2B15, 2B17; P-gp; BCRP; BSEP; OCT1, OCT2; OATP1B1, OATP1B3; MATE 1, MATE 2-K …; assay: Inhibition of enzymes and transporters; format: in vitro ADME
[7] = Multiple-dose pharmacokinetics after monthly IM injections, population PK post-hoc estimates FLAIR and ATLAS; format: in vivo, human; conditions: 400-mg monthly IM injection
HIV-1 clinical isolates = assay: Antiviral activity in PBMCs against clinical isolates; format: cell-based; conditions: Human immunodeficiency virus 1, PBMC
HIV-1 [8] = tested on: HIV-1
Protein-adjusted IC90 = format: cell-based; conditions: read-out: protein-adjusted IC90 (PA-IC90)
Excerpt: Mar. 4-7, 2019, Seattle, WA.).

[9] = tested on: OATP1B1, OATP1B3, OCT1, P-gp, BCRP; assay: In vitro transporter substrate assessment; format: in vitro ADME
[10] = tested on: recombinant HIV-1 strain NL432 viruses; format: cell-based
[11] = Mass balance studies, single-dose oral [14C] drug; format: in vivo, human; conditions: single-dose oral [14C] drug
[12] = Fertility studies in rats; format: in vivo, rat; conditions: oral, 1,000 mg/kg/day up to 26 weeks, male and female rats
[13] = Genotoxicity: bacterial reverse mutation assay, mouse lymphoma assay, in vivo rodent micronucleus assay
HIV-1 integrase = HIV-1 integrase (Human immunodeficiency virus type 1 group M subtype B, UniProt P04585)
[14] = target: T1, renal organic anion transporters (OAT)1 (Homo sapiens, UniProt Q4U2R8); assay: In vitro transporter inhibition, OAT1; format: in vitro ADME
T1 sequence (Q4U2R8 1-563): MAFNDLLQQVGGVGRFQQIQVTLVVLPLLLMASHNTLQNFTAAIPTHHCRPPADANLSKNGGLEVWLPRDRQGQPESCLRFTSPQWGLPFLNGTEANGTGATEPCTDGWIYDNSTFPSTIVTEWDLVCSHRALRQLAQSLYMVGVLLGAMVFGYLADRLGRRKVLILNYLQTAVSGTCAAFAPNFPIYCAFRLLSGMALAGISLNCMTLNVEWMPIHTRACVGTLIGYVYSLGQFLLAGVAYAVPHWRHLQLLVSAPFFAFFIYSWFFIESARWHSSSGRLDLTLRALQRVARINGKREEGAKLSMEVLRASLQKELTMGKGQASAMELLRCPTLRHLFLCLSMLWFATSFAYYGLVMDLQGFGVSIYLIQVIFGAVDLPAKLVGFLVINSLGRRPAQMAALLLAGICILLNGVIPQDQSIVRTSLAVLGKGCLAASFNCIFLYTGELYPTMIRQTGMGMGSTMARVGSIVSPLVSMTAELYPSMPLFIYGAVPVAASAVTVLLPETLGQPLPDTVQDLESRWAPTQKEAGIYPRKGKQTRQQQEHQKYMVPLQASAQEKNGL
Excerpt: However, based on PBPK modeling, no interaction with OAT substrates is expected at clinically relevant concentrations.

[15] = Lactating rats, exposure of pups through milk; format: in vivo, rat; conditions: administered to lactating rats
Excerpt: The Centers for Disease Control and Prevention recommends that HIV-1-infected mothers in the United States not breastfeed their infants to avoid risking postnatal transmission of HIV-1 infection. It is not known if the components of the Combination are present in human breast milk, affect human milk production, or have effects on the breastfed infant. […] Animal Data: Cabotegravir: […] Rilpivirine: […]

[16] = Binding to human plasma proteins; format: in vitro ADME; conditions: read-out: % Bound to human plasma proteins (converted)
[17] = tested on: laboratory strains of HIV-1 (subtype B); assay: Antiviral activity in PBMCs and 293 cells; format: cell-based; conditions: Human immunodeficiency virus 1, HEK293, n=4 strains
[18] = oral administration once daily; cited from earlier work

With `C[C@H]1CO[C@@H]2Cn3cc(C(=O)NCc4ccc(F)cc4F)c(=O)c(O)c3C(=O)N12` [Cabotegravir, (3S,11aR)-N-[(2,4-difluorophenyl)methyl]-6-hydroxy-3-methyl-5,7-dioxo-2,3,5,7,11,11a-hexahydro[1,3]oxazolo[3,2-a]pyrido[1,2-d]pyrazine-8-carboxamide] the “antiviral activity in combination with rilpivirine, emtricitabine (FTC), lamivudine (3TC), or tenofovir disoproxil fumarate (TDF)” value (HIV-1 [1]) was “not antagonistic”, the “QTc interval over 24 hours post dose” value [2] was “did not prolong the QTc interval” and the “maximum time-matched mean QTc change (QTcF), baseline and placebo adjusted” value ([2]; 3 doses) was 2.62 ms. For the same compound, the “increase in mean steady-state AUC, Cmax, and Ctau vs normal UGT1A1 metabolism” value ([3]; UGT1A1 genotypes conferring poor metabolism, long-acting injection) was 1.2 fold, the “pharmacokinetic differences vs matching healthy subjects” value ([3]; moderate hepatic impairment) was “No clinically important pharmacokinetic differences” and the “pharmacokinetic differences vs matching healthy subjects” value ([3]; severe renal impairment (CrCL<30 mL/min, not on dialysis)) was “No clinically important pharmacokinetic differences”. The “effect on parturition, prenatal and postnatal development study” value ([4]; oral 1,000 mg/kg/day) was “delayed the onset of parturition”, the “embryo-fetal development in rats” value ([4]; oral 1,000 mg/kg/day, in the presence of maternal toxicity) was “alterations in fetal growth (decreased body weights)” and the placental transfer ([4]; pregnant rats) was “crosses the placenta”. For the same compound, the “induction of CYP1A2, CYP2B6, or CYP3A4” value (CYP1A2, CYP2B6, CYP3A4) was “did not induce”, the carcinogenicity ([5]; mouse) was “not carcinogenic” and the carcinogenicity ([5]; rat) was “not carcinogenic”. The “inhibition of listed CYP, UGT enzymes and transporters” value [6] was “not a clinically relevant inhibitor”, the “Ctrough, geometric mean” value [7] was 2900 ng/mL and the AUC ([7]; human, in vivo, read-out: AUCtau, geometric mean) was 2460 µg·h/mL. It also gave a Cmax ([7]; human, in vivo, read-out: Cmax, geometric mean) of 4200 ng/mL, an EC50 (HIV-1 clinical isolates; read-out: EC50 range, panel of 24 HIV-1 clinical isolates, PBMCs) of 20 to 1060 pM and an EC50 (HIV-1 clinical isolates; read-out: EC50 range, subtype B clinical isolates, n=3) of 20 to 500 pM. The EC50 (HIV-1 clinical isolates; read-out: median EC50, panel of 24 HIV-1 clinical isolates (group M subtypes A-G, group O), PBMCs) was 190 pM, the EC50 (HIV-1 clinical isolates; read-out: median EC50, subtype B clinical isolates, n=3) was 50 pM and the “decreased susceptibility in virologic failures” value (HIV-1 [8]; G140R, n=1) was 7 fold. The “decreased susceptibility in virologic failures” value (HIV-1 [8]; N155H, n=1) was 3 fold, the “decreased susceptibility in virologic failures” value (HIV-1 [8]; Q148R, n=2) was 5 fold and 9 fold and the IC90 (Protein-adjusted IC90) was 0.166 µg/mL (≈ 0.41 µM). For the same compound, the “substrate of OATP1B1, OATP1B3, or OCT1” value [9] was “not a substrate”, the “substrate of P-gp and BCRP” value [9] was “is a substrate” and the “activity against viruses with NNRTI substitutions K103N or Y188L, or NRTI substitutions M184V, D67N/K70R/T215Y, or V751/F77L/F116Y/Q151M” value [10] was “active”. The reduction in susceptibility ([10]; E138K+Q148K) was 81 fold, the reduction in susceptibility ([10]; Q148R+N155H) was 61 fold and the “% of dose excreted as total 14C in feces” value [11] was 59%. For the same compound, the “% of dose excreted as total 14C in urine” value [11] was 27%, the “% of dose excreted as unchanged drug in feces” value [11] was 47% and the “% of dose excreted as unchanged drug in urine” value [11] was 0%. The “effects on reproductive organs, spermatogenesis, mating or fertility” value [12] was “did not cause adverse effects”, the genotoxicity [13] was “not genotoxic” and the IC50 (HIV-1 integrase) was 3000 pM. For the same compound, the IC50 [14] was 810000 pM, the presence in milk [15] was “present in milk” and the fraction unbound [16] was < 0.002. The EC50 [17] was 220 to 1700 pM and the half-life [18] was 40 h.
